Results on 30 compounds are retold here after ChEMBL document CHEMBL5442175, “EUbOPEN Chemogenomics Library - PDSP Secondary Binding” (2024).

As a reminder, the Ki is the dissociation constant of the complex between target and ligand, obtained from inhibition or displacement. A lower Ki goes with tighter binding.

Counter-ions that a name gives are not always drawn.

Assay [1] has as its target Sodium-dependent dopamine transporter (Homo sapiens, UniProt Q01959). Kind of assay: PDSP Secondary Binding target: SLC6A3 - Compounds are tested at 10 uM concentration, plate are incubated at room temperature in the dark for 90 minutes. Reaction are stopped by vacuum filtration onto 0.3% polyethyleneimine soaked filter mats using Filtermate harvester. Scintillation cocktail is then melted onto microwave-dried filters on a hot plate and the radio activity is counted in Microbia counter.

For assay [2], the target named is 5-hydroxytryptamine receptor 2A (Homo sapiens, UniProt P28223). Kind of assay: PDSP Secondary Binding target: HTR2A - Compounds are tested at 10 uM concentration, plate are incubated at room temperature in the dark for 90 minutes. Reaction are stopped by vacuum filtration onto 0.3% polyethyleneimine soaked filter mats using Filtermate harvester. Scintillation cocktail is then melted onto microwave-dried filters on a hot plate and the radio activity is counted in Microbia counter.
Sequence of 5-hydroxytryptamine receptor 2A (P28223 whole entry): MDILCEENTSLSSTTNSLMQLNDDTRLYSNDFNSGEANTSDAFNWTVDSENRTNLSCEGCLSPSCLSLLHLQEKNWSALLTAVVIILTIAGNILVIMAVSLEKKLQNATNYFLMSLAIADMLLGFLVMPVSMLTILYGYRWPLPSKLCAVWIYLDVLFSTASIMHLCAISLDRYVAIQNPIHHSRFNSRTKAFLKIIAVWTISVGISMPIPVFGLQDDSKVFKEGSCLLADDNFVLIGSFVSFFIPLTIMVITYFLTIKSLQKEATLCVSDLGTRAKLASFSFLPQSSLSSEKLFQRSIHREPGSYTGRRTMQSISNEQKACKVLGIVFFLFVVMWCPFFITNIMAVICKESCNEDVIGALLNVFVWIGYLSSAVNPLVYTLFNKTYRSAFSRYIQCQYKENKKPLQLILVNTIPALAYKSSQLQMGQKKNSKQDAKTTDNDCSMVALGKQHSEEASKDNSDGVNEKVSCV

For assay [3], the target named is T1, Muscarinic acetylcholine receptor M5 (Homo sapiens, UniProt P08912).
T1 sequence (P08912 whole entry): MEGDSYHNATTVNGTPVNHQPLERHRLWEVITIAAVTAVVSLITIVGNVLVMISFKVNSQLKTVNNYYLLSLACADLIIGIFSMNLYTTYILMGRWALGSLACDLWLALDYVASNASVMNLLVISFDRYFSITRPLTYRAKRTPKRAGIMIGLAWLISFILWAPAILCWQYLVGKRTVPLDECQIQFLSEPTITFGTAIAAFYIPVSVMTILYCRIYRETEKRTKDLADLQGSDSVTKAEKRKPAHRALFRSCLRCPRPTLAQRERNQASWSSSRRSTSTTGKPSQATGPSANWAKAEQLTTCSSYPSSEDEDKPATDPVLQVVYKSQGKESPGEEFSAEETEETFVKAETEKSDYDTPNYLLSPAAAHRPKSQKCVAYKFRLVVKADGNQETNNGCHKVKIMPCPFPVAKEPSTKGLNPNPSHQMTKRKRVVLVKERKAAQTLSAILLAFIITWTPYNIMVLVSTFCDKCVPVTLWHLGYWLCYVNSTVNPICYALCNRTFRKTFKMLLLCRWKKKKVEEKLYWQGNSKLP
Kind of assay: PDSP Secondary Binding target: CHRM5 - Compounds are tested at 10 uM concentration, plate are incubated at room temperature in the dark for 90 minutes. Reaction are stopped by vacuum filtration onto 0.3% polyethyleneimine soaked filter mats using Filtermate harvester. Scintillation cocktail is then melted onto microwave-dried filters on a hot plate and the radio activity is counted in Microbia counter.

The target of assay [4] is Sigma intracellular receptor 2 (Homo sapiens, UniProt Q5BJF2). Kind of assay: PDSP Secondary Binding target: TMEM97 - Compounds are tested at 10 uM concentration, plate are incubated at room temperature in the dark for 90 minutes. Reaction are stopped by vacuum filtration onto 0.3% polyethyleneimine soaked filter mats using Filtermate harvester. Scintillation cocktail is then melted onto microwave-dried filters on a hot plate and the radio activity is counted in Microbia counter.
Sequence of Sigma intracellular receptor 2 (Q5BJF2 whole entry): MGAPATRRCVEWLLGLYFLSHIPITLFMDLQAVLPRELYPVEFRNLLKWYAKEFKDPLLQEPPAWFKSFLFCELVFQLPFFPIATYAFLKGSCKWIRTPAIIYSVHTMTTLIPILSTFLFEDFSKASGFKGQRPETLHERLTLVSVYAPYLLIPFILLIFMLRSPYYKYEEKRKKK

Assay [5] concerns the target 5-hydroxytryptamine receptor 7 (Homo sapiens, UniProt P34969). Put plainly: PDSP Secondary Binding target: HTR7 - Compounds are tested at 10 uM concentration, plate are incubated at room temperature in the dark for 90 minutes. Reaction are stopped by vacuum filtration onto 0.3% polyethyleneimine soaked filter mats using Filtermate harvester. Scintillation cocktail is then melted onto microwave-dried filters on a hot plate and the radio activity is counted in Microbia counter.

In assay [6] the target is Sigma non-opioid intracellular receptor 1 (Homo sapiens, UniProt Q99720). Kind of assay: PDSP Secondary Binding target: SIGMAR1 - Compounds are tested at 10 uM concentration, plate are incubated at room temperature in the dark for 90 minutes. Reaction are stopped by vacuum filtration onto 0.3% polyethyleneimine soaked filter mats using Filtermate harvester. Scintillation cocktail is then melted onto microwave-dried filters on a hot plate and the radio activity is counted in Microbia counter.
Sequence of Sigma non-opioid intracellular receptor 1 (Q99720 whole entry): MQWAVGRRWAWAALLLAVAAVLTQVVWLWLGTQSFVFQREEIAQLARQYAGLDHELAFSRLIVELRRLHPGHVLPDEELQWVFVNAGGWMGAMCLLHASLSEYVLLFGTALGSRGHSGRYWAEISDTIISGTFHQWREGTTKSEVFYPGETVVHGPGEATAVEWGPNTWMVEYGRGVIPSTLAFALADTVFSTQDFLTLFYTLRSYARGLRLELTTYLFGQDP

The target of assay [7] is T2, Alpha-2A adrenergic receptor (Homo sapiens, UniProt P08913).
T2 sequence (P08913 whole entry): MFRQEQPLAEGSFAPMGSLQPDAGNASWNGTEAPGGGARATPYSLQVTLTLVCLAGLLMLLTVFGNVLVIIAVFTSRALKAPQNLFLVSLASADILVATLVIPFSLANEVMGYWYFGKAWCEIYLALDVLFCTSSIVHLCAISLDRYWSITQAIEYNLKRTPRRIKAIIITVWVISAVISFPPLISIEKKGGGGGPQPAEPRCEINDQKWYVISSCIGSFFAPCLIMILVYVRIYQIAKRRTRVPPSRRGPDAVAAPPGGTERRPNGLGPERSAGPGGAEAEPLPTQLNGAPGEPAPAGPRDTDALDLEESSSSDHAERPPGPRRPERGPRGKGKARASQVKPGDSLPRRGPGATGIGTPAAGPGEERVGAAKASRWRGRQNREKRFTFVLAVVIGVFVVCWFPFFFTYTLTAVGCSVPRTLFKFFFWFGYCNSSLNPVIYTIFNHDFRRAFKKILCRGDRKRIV
Kind of assay: PDSP Secondary Binding target: ADRA2A - Compounds are tested at 10 uM concentration, plate are incubated at room temperature in the dark for 90 minutes. Reaction are stopped by vacuum filtration onto 0.3% polyethyleneimine soaked filter mats using Filtermate harvester. Scintillation cocktail is then melted onto microwave-dried filters on a hot plate and the radio activity is counted in Microbia counter.

For assay [8], the target named is D(3) dopamine receptor (Homo sapiens, UniProt P35462). Kind of assay: PDSP Secondary Binding target: DRD3 - Compounds are tested at 10 uM concentration, plate are incubated at room temperature in the dark for 90 minutes. Reaction are stopped by vacuum filtration onto 0.3% polyethyleneimine soaked filter mats using Filtermate harvester. Scintillation cocktail is then melted onto microwave-dried filters on a hot plate and the radio activity is counted in Microbia counter.
Sequence of D(3) dopamine receptor (P35462 whole entry): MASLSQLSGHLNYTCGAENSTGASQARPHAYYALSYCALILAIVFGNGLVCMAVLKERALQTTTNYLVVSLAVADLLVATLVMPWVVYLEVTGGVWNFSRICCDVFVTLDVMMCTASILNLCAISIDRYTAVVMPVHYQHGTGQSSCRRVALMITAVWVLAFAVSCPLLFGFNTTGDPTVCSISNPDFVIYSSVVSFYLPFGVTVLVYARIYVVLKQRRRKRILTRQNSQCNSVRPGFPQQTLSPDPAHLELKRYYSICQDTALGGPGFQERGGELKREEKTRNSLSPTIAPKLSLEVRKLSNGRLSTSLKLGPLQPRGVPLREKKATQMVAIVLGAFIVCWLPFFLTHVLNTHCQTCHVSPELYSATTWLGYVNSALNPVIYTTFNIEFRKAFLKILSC

For assay [9], the target named is Translocator protein (Homo sapiens, UniProt P30536). Put plainly: PDSP Secondary Binding target: TSPO - Compounds are tested at 10 uM concentration, plate are incubated at room temperature in the dark for 90 minutes. Reaction are stopped by vacuum filtration onto 0.3% polyethyleneimine soaked filter mats using Filtermate harvester. Scintillation cocktail is then melted onto microwave-dried filters on a hot plate and the radio activity is counted in Microbia counter.
Sequence of Translocator protein (P30536 whole entry): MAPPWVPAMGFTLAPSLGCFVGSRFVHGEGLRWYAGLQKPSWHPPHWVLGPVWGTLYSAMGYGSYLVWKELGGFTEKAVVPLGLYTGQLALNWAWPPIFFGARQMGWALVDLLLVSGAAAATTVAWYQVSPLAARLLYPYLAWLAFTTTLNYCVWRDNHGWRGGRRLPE

Assay [10] deals with Sodium-dependent noradrenaline transporter (Homo sapiens, UniProt P23975). Put plainly: PDSP Secondary Binding target: SLC6A2 - Compounds are tested at 10 uM concentration, plate are incubated at room temperature in the dark for 90 minutes. Reaction are stopped by vacuum filtration onto 0.3% polyethyleneimine soaked filter mats using Filtermate harvester. Scintillation cocktail is then melted onto microwave-dried filters on a hot plate and the radio activity is counted in Microbia counter.
Sequence of Sodium-dependent noradrenaline transporter (P23975 whole entry): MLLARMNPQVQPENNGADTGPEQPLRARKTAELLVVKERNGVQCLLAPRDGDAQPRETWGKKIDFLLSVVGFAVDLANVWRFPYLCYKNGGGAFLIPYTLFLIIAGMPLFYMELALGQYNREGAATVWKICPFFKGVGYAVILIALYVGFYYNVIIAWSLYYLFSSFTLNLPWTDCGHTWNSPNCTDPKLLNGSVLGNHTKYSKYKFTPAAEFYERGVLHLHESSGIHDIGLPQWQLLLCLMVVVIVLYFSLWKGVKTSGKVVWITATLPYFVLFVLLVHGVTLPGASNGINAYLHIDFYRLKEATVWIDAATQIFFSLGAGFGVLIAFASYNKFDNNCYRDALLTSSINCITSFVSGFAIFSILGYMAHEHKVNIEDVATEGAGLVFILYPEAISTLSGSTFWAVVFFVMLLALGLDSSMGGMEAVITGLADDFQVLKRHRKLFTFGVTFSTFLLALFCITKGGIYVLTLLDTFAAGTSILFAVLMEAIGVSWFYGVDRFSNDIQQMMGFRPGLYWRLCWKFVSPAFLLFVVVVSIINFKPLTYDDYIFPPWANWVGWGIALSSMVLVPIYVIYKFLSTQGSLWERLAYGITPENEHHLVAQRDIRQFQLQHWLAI

Assay [11] has as its target 5-hydroxytryptamine receptor 1D (Homo sapiens, UniProt P28221). Kind of assay: PDSP Secondary Binding target: HTR1D - Compounds are tested at 10 uM concentration, plate are incubated at room temperature in the dark for 90 minutes. Reaction are stopped by vacuum filtration onto 0.3% polyethyleneimine soaked filter mats using Filtermate harvester. Scintillation cocktail is then melted onto microwave-dried filters on a hot plate and the radio activity is counted in Microbia counter.

Assay [12] deals with T3, Alpha-1B adrenergic receptor (Homo sapiens, UniProt P35368).
T3 sequence (P35368 whole entry): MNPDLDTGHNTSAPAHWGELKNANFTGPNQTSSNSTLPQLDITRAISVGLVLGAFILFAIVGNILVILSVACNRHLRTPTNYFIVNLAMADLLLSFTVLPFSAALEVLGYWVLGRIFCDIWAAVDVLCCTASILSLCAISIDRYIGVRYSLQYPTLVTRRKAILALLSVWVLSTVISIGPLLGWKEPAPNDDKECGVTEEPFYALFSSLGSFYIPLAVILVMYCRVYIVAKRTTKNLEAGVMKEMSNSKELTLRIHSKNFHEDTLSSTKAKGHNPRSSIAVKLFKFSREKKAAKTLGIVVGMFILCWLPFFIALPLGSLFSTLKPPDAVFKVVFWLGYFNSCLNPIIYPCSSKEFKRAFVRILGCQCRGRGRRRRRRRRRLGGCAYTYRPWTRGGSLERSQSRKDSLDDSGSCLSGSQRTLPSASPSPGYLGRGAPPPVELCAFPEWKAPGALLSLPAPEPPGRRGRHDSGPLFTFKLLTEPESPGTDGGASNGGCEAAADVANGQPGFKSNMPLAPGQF
Put plainly: PDSP Secondary Binding target: ADRA1B - Compounds are tested at 10 uM concentration, plate are incubated at room temperature in the dark for 90 minutes. Reaction are stopped by vacuum filtration onto 0.3% polyethyleneimine soaked filter mats using Filtermate harvester. Scintillation cocktail is then melted onto microwave-dried filters on a hot plate and the radio activity is counted in Microbia counter.

Sequence of Sodium-dependent dopamine transporter (Q01959 whole entry): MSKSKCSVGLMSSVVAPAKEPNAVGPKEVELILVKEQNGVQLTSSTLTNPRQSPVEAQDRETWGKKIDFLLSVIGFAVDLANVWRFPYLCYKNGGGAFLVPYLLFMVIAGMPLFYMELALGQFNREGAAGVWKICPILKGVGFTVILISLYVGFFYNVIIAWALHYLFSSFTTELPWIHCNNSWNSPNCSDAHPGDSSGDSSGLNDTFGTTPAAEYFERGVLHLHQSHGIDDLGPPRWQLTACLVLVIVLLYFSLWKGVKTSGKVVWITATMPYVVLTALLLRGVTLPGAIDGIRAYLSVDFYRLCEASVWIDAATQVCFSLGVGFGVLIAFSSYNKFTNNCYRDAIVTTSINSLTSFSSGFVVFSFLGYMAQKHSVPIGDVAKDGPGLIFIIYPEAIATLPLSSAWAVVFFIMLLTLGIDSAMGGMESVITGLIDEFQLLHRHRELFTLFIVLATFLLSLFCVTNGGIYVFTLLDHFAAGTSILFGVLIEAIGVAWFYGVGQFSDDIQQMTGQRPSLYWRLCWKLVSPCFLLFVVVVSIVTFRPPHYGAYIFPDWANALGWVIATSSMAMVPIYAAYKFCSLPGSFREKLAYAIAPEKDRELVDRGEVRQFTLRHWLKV
Sequence of 5-hydroxytryptamine receptor 7 (P34969 whole entry): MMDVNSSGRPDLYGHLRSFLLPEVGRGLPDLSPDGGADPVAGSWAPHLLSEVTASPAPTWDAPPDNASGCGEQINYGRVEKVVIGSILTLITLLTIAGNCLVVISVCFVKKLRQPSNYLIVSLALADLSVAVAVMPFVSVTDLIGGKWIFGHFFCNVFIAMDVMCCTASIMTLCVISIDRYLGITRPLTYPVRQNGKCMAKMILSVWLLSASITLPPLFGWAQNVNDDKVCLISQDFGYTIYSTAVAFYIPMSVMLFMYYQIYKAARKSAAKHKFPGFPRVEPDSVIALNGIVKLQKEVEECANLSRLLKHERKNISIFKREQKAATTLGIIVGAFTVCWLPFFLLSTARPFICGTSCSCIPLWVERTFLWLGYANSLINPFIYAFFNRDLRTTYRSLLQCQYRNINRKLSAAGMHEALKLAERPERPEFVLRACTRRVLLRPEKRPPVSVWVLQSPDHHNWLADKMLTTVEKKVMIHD
Sequence of 5-hydroxytryptamine receptor 1D (P28221 whole entry): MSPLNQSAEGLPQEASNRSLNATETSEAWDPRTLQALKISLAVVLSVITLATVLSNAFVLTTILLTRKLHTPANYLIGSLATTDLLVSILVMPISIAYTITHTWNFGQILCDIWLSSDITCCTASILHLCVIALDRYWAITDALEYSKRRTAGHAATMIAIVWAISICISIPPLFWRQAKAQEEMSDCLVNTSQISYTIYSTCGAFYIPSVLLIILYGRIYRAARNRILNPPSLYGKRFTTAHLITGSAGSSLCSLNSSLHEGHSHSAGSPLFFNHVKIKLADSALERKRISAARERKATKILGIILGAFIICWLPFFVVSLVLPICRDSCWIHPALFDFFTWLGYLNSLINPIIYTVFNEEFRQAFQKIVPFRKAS

Consider `CCCCC#Cc1nc(NC)c2ncn([C@@H]3O[C@H](CO)[C@@H](O)[C@H]3O)c2n1`, for which the results for the Ki in assay [1] and in assay [2] were above 10000 nM and 7870 nM, respectively.

Take `COc1ccccc1CN[C@H]1C2CCN(CC2)[C@H]1C(c1ccccc1)c1ccccc1` [CP-96345]: the results for the Ki in assay [3] and in assay [4] were 4940 nM and 906 nM, respectively.

In assay [5], `CNC[C@H](O)c1cccc(O)c1` [PHENYLEPHRINE] gave a Ki of 1110 nM.

In turn, `N#Cc1c(O)nc(SCc2cccc(F)c2F)nc1C1CC1` showed a Ki in assay [3] of 6560 nM.

As for `FC(F)(F)c1c(N2CCC(c3ccccc3)CC2)ccn2c(CC3CC3)nnc12`, the Ki in assay [1] was 4310 nM; in assay [6] it was 983 nM.

Turning to `CO[C@@H]1COCC[C@@H]1N[C@@H]1CC[C@@](C(=O)N2CCc3ncc(C(F)(F)F)cc3C2)(C(C)C)C1` [MK-0812], the Ki in [6] is 830 nM; in assay [4] it was 1870 nM.

As to `CCC(=O)NCC[C@@H]1CCc2ccc3c(c21)CCO3` [RAMELTEON], the Ki in assay [6] worked out at 8850 nM.

`CCCn1c(=O)c2[nH]c(C34CC5CC(CC3C5)C4)nc2n(CCC)c1=O` [ROLOFYLLINE]: in [1], the Ki was 3360 nM.

For `CC1=C2C[C@H]3[C@@H](CC=C4C[C@@H](O)CC[C@@]43C)[C@@H]2CC[C@]12O[C@@H]1C[C@H](C)CN[C@H]1[C@H]2C` [CYCLOPAMINE], the Ki in [1] was 3420 nM; in [4], 599 nM.

On to `Cc1c(F)cccc1NC(=O)Nc1ccc(Cl)c(S(=O)(=O)[C@H]2CCCNC2)c1O` [DANIRIXIN], for which the inhibitory constant (Ki) in assay [7] was above 10000 nM.

Regarding `COc1ccc(Br)cc1S(=O)(=O)NC(=O)/C=C/c1ccccc1Cc1ccc2ccccc2c1`, the Ki in assay [8] was determined as 582 nM.

On to `CCCCCCCCCCCCC/C=C/[C@@H](O)[C@@H](N)COP(=O)(O)O`, for which the values for the Ki in assay [9], in assay [6] and in assay [4] were 3120 nM, 5980 nM and 672 nM, respectively.

On to `CCCCN(CC)c1nc(C)nc2c1c(C)cn2-c1c(C)cc(C)cc1C`, for which the Ki was 1880 nM in assay [9] and 2120 nM in assay [4].

Regarding `Cc1csc(NC(=O)c2cc(F)cc(Oc3cncnc3)c2)n1`, the Ki in [3] is above 10000 nM; in [1] it was 2990 nM; in assay [8] it was 2140 nM.

`COc1ccc(/C=C/CCCCOc2ccc(C(=O)c3cccc(C(=O)O)c3)cc2CCC(=O)O)cc1` gave a Ki in assay [8] of 1960 nM.

In turn, `Cc1cc(C)c(N)c(C#Cc2cccc(F)c2)n1` [RASEGLURANT] registered a Ki in assay [10] of 345 nM.

Turning to `O=C1O[C@]2(CC[C@H](C(=O)Nc3ccn(-c4ccccc4F)n3)CC2)c2cnccc21` [MK-0557], the Ki in [8] stood at 3570 nM.

As to `CCCSc1nc(N[C@@H]2C[C@H]2c2ccc(F)c(F)c2)c2nnn([C@@H]3C[C@H](OCCO)[C@@H](O)[C@H]3O)c2n1` [TICAGRELOR], the Ki worked out at 519 nM in assay [1] and 1300 nM in [4].

In assay [11], `O=C(Cc1ccccc1)Nc1nc2ccc(Cl)cc2c2nc(-c3ccco3)nn12` displayed a Ki above 10000 nM.

Compound `CN1C(=O)[C@@H](NC(=O)c2cc3ccccc3[nH]2)N=C(c2ccccc2)c2ccccc21` [DEVAZEPIDE] yielded a Ki in assay [9] of 3330 nM.

Take `COC(=O)[C@H]1[C@H]2C[C@H]3c4[nH]c5ccccc5c4CCN3C[C@H]2CC[C@@H]1O` [RAUWOLSCINE HYDROCHLORIDE]: the Ki stood at 2780 nM in [6] and 333 nM in assay [5].

On to `CC(C)Oc1ccccc1C(=O)Nc1ccccc1C(=O)Nc1cccc(S(=O)(=O)C(F)(F)F)c1`, for which the Ki in assay [2] was 983 nM; in assay [9], 111 nM.

`Cc1nc(-c2ccc(C(F)(F)F)cc2)sc1COc1ccc([C@H](CC(=O)O)c2ccon2)cc1`: the figures for the Ki in [3], in assay [1] and in assay [12] were 6850 nM, 4490 nM and above 10000 nM, respectively.

On to `COC1CCN(c2cccc(-c3cc(NC(C)=O)nc(-n4nc(C)cc4C)n3)n2)CC1`, for which the Ki in assay [9] turned out to be 969 nM; in assay [6], 474 nM.

For the compound `NC(=O)[C@@H]1CCCN1C(=O)[C@H](Cc1cnc[nH]1)NC(=O)[C@@H]1CCC(=O)N1` [PROTIRELIN], the Ki in [9] was above 10000 nM.

Take `CC(C)NCC(O)COc1ccc(CCOCC2CC2)cc1` (configuration not stated) [BETAXOLOL HYDROCHLORIDE]: the values for the Ki in assay [6] and in [4] were 248 nM and 1650 nM, respectively.

The compound `CC1(C)SSC(C)(C)[C@@H](NC(=O)[C@@H](N)Cc2ccc(O)cc2)C(=O)NCC(=O)N[C@@H](Cc2ccccc2)C(=O)N[C@H]1C(=O)O` gave a Ki in assay [9] of 1630 nM.

In turn, `COc1ccc(CNC(=O)c2cc(-c3cncc(Cl)c3)cnc2-c2ccccn2)nc1OC` [MK-1064] displayed a Ki in assay [2] of 4590 nM.

Compound `Nc1nc(NCCc2ccc(O)cc2)nc2nc(-c3ccco3)nn12` [ZM-241385] registered a Ki in assay [4] of 1070 nM.

For `O=C(O)CC1CCC2(CC1)CCN(c1cc(OC(F)(F)F)ccc1Cl)CC2`, the affinity in assay [8] corresponds to a Ki of 591 nM.
